# Measured values: PubChem BioAssay (NCI)
# “And” between values parts separate entries of the source, which are not always exact repeats. Equal values may be shown once.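 1) Cells in 96-well plates. 2) Compound, 48 h, 5 concentrations. 3) Linear interpolation between surrounding doses. 4) Unreached endpoint = highest concentration. GI50 is the concentration that inhibits growth by half. TGI: concentration producing complete growth inhibition.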
# Experiments:
# Test in all cases: NCI tumour cell line growth inhibition, 48 h
# HCC-2998 colon = system: HCC-2998 colon
# KM12 colon = system: KM12 colon
# MALME-3M melanoma = system: MALME-3M melanoma
# MDA-MB-231 breast = system: MDA-MB-231 breast
# MDA-MB-435 = system: MDA-MB-435
# OVCAR-4 ovarian = system: OVCAR-4 ovarian
# OVCAR-5 ovarian = system: OVCAR-5 ovarian
# SK-OV-3 ovarian = system: SK-OV-3 ovarian
# SW-620 colon = system: SW-620 colon
# UACC-257 melanoma = system: UACC-257 melanoma
Structure (SMILES),GI50 (HCC-2998 colon),TGI (HCC-2998 colon) [µM],GI50 (KM12 colon) [µM],TGI (KM12 colon),GI50 (MALME-3M melanoma) [µM],TGI (MALME-3M melanoma),GI50 (MDA-MB-231 breast),TGI (MDA-MB-231 breast) [µM],GI50 (MDA-MB-435),TGI (MDA-MB-435),GI50 (OVCAR-4 ovarian) [nM],TGI (OVCAR-4 ovarian) [µM],GI50 (OVCAR-5 ovarian),TGI (OVCAR-5 ovarian),GI50 (SK-OV-3 ovarian),TGI (SK-OV-3 ovarian),GI50 (SW-620 colon),TGI (SW-620 colon) [µM],GI50 (UACC-257 melanoma) [µM],TGI (UACC-257 melanoma) [µM]
CCCCCCCCCCCCOC1C(CNC(=O)C2OC3OC(C)(C)OC3C2NC(=O)CN2CCN(c3ccc(OC)cc3)CC2)OC2OC(C)(C)OC21 (stereo not given),3400 nM,11,3.35,10.9 µM,11.9,24.1 µM,5650 nM,17.8,5120 nM,17.7 µM,3830,15.8,2.52 µM,7.5 µM,5.87 µM,17.7 µM,3.75 µM,28.3,3.83,12.7
O=C(c1ccc(Cl)cc1)C(O)c1ccc(Cl)cc1 (stereo not given),–,> 100,–,> 100 µM,–,> 100 µM,–,> 100,–,> 100 µM,–,> 100,–,> 100 µM,–,–,–,> 100,–,> 100
CC(=O)NNc1nc(C)c(C(/C=C/c2ccccc2O)=N/N=C(N)N)s1,–,> 100,–,> 100 µM,–,> 100 µM,–,> 100,–,> 100 µM,–,> 100,–,> 100 µM,–,> 100 µM,–,> 100,–,> 100
Cc1cc(-c2cc(O)ccc2Cl)cc2nnc(Nc3ccc(OCCN4CCCC4)cc3)nc12,1940 nM,3.66,0.617,1.32 µM,0.19,0.426 µM,299 nM,0.967,175 nM,0.321 µM,615,1.3,1.65 µM,3.14 µM,1.3 µM,2.8 µM,0.205 µM,0.399,1.96,3.91
C#CCN(c1ccc(C(=O)N[C@@H](CCC(=O)N[C@H](CCC(=O)O)C(=O)O)C(=O)O)cc1)C1CCc2cc3nc(CO)[nH]c(=O)c3cc21 (stereo not given in full),1320 nM,> 100,> 100,> 100 µM,> 100,> 100 µM,> 100000 nM,> 100,> 74500 nM,> 100 µM,> 100000,> 100,> 100 µM,> 100 µM,> 53.4 µM,> 100 µM,> 44.5 µM,> 100,> 100,> 100
CC[C@@H](C)/C=C(C)/C=C/C(=O)c1c(O)c(-c2ccc(O)cc2)cn(O)c1=O,2310 nM,13.1,1.99,12.7 µM,0.255,4.7 µM,733 nM,23,468 nM,17.5 µM,261,12.5,2.71 µM,20.8 µM,0.642 µM,21.7 µM,0.55 µM,14,0.317,6.95
O=C1C=CC(=O)c2c(O)c3c(c(O)c21)C[C@H](O)[C@H](O)[C@@H]3O,–,21.3,–,16.8 µM,–,2.6 µM,–,6.08,–,3.13 µM,–,3.45,–,17.2 µM,–,33 µM,–,2.37,–,2.64
CCCCCC/C=C\CCCCCCCCCC1=C(CN2CCN(C)CC2)C(=O)C=C(OC)C1=O,–,23.8,–,21 µM,–,9.55 µM,–,25.9,–,21.1 µM,–,3.8,–,28.8 µM,–,25.9 µM,–,3.38,–,28.6
Oc1c(Cl)cc(Cl)c2ccc(Cn3cc(-c4ccc(C(F)(F)F)cc4)nn3)nc12,5860 nM,20.3,12.1,26.6 µM,1.63,3.13 µM,2190 nM,6.81,1760 nM,3.75 µM,1430,3.37,2.27 µM,7.59 µM,17.7 µM,33 µM,0.493 µM,1.83,1.23,3.3
CO[C@H]1CC(O[C@@H]2/C(C)=C/C[C@@H]3C[C@@H](C[C@]4(CC[C@H](C)[C@@H](C5CCCCC5)O4)O3)OC(=O)[C@@H]3C=C(C)/C(=N/O)[C@H]4OC/C(=C\C=C\[C@@H]2C)[C@]43O)O[C@@H](C)C1O (stereo not given in full),831 nM,1.57,0.826,1.52 µM,1.17,3.15 µM,768 nM,1.59,1050 nM,2.41 µM,1020,2.65,0.917 µM,2.02 µM,1.17 µM,2.86 µM,0.777 µM,1.5,0.987,2.55
Cc1cc(C)c(-c2c(N)cc(Br)cc2Br)c(N)c1,10900 nM,23.1,3.89,14.5 µM,5.09,20.3 µM,4850 nM,19,2290 nM,7.37 µM,8430,22.3,11.6 µM,25.6 µM,3.53 µM,14.3 µM,3.93 µM,16,5.84,22.1
CC(C)CCCCCCCCCCCCC(=O)NCC(=O)NC1C(O)C(O)C(Nc2ncnc3nc[nH]c23)OC1C(O)CO (stereo not given),< 0.01 nM,–,–,0.0479 µM and 0.0235 µM,–,0.0125 µM and 0.00724 µM,< 0.01 nM,0.38,< 0.01 nM,–,< 0.01,–,0.005 µM,0.0171 µM and 0.0695 µM,0.005 µM,0.00344 µM and 0.0224 µM,0.000756 µM and 0.005 µM,–,–,–
Cn1c2c(c3ccccc31)CCN1C(=O)CCC21 (stereo not given),–,> 10,–,> 10 µM,–,> 10 µM,–,> 10,–,> 10 µM,–,> 10,–,> 10 µM,–,> 10 µM,–,> 10,–,> 10
CC(=O)c1cc(C(=O)c2ccc3c(c2)Sc2ccccc2N3)n2ccccc12,19.9 nM and 29.5 nM,> 33.2,0.00441,–,0.00487,–,6.51 nM and 20.3 nM,–,1.8 nM and < 3.32 nM,0.00453 µM and < 0.00332 µM,14.5,–,0.0376 µM and 0.199 µM,> 33.2 µM,0.00438 µM and 0.00332 µM,21.5 µM,0.00363 µM and 0.00332 µM,> 33.2,0.00332,> 33.2
CCc1nc2ccc(N=Nc3c(O)ccc4ccccc34)cc2[nH]1,–,29.7,–,31.9 µM,–,33.6 µM,–,49.5,–,67.5 µM,–,28.4,–,34.9 µM,–,> 62 µM,–,54.4,–,29.4
Cc1cc(Nc2nc(N[C@@H](C)c3ncc(F)cn3)ncc2Cl)n[nH]1,38700 nM,> 100,0.369,> 64.1 µM,47.1,> 100 µM,30600 nM,> 100,28100 nM,> 100 µM,23200,> 100,38.4 µM,> 100 µM,22.6 µM,> 100 µM,22.6 µM,> 100,33.2,> 100
Cc1cn(Cc2ccc(C34CC5CC(CC(C5)C3)C4)c(O)c2)c(=O)[nH]c1=O,9450 nM,21.4,11.4,26.2 µM,14.6,29.7 µM,15500 nM,31,2620 nM,9.02 µM,12900,32.1,16.1 µM,29.8 µM,19.2 µM,44.3 µM,8.59 µM,20.9,–,–
CCN(CC)CCCC(C)N/C(=C1\C(=O)NC(=O)\C1=C(/NC(C)CCCN(CC)CC)c1cccc(OC)c1)c1cccc(OC)c1 (stereo not given),845 nM,1.61,0.835,4.06 µM,0.85,1.63 µM,574 nM,1.47,803 nM,1.52 µM,742,2.2,1.16 µM,3.42 µM,1.31 µM,3.92 µM,0.512 µM,3.65,0.842,1.58
CSc1nc2c(c(=O)n1C)CN(C1CCCCC1)C(=O)C(c1ccccc1)N2 (stereo not given),35900 nM,> 100,27.6,> 100 µM,10.9,43.5 µM,27400 nM,> 100,19100 nM,> 100 µM,35200,> 100,> 100 µM,> 100 µM,76.8 µM,> 100 µM,38.5 µM,> 100,38.2,> 100
CCN(Cc1cccc(Cl)c1)c1ccc(CO)c(Cl)c1,11300 nM,24.8,12.9,26.8 µM,15.8,32.8 µM,12900 nM,30.2,13500 nM,27.5 µM,505,9.87,0.222 µM,1.25 µM,5.62 µM,18.2 µM,1.56 µM,18.1,0.134,0.404
c1ccc(CNCCN(CCNCc2ccccn2)Cc2ccc3ccccc3c2)nc1,1830 nM,3.39,2.14,4.85 µM,1.65,3.63 µM,1680 nM,3.81,1990 nM,4.08 µM,1880,5.3,1.63 µM,4.03 µM,1.94 µM,5.11 µM,2.36 µM,6.32,2.16,4.69
CCCCCCCC/C=C/CCCCCCCC1=NC(C)(C)CN1CCO,1700 nM,3.1,1.69,3.06 µM,1.85,3.88 µM,1720 nM,3.69,1730 nM,3.41 µM,2800,8.59,2.73 µM,7.98 µM,9.97 µM,24.2 µM,1.73 µM,3.37,2,3.81
C/C(=C(\c1ccc(OCCN2CCCCCC2)cc1)c1ccc(OC(=O)c2ccccc2)cc1)c1ccc(Cl)cc1,2360 nM,7.03,3.14,8.72 µM,3.6,8.72 µM,4900 nM,9.96,4240 nM,8.87 µM,3600,9.82,3.93 µM,8.82 µM,4.41 µM,9.52 µM,4.04 µM,9.42,5.34,10.4
COc1cc(C2c3cc4c(cc3C(OC(=O)C[n+]3ccccc3)C3COC(=O)C23)OCO4)cc(OC)c1OC (stereo not given),< 17.4 nM,> 20.9,< 0.0168,> 100 µM,> 100,> 100 µM,< 21.4 nM,> 22.4,< 10 nM,< 0.01 µM,< 23.9,> 100,–,> 100 µM,< 0.0207 µM,> 100 µM,< 0.0203 µM,> 100,> 100,> 100
O=C(O)C1[O][Sb][O]C(C(=O)O)C1O (stereo not given),–,–,> 100,> 100 µM,> 100,> 100 µM,> 100000 nM,> 100,> 100000 nM,> 100 µM,> 100000,> 100,> 100 µM,> 100 µM,–,–,> 100 µM,> 100,–,–
O=C1c2ccccc2-c2c1c1ccccc1c(=O)n2CCCNCCn1c2c(c3ccccc3c1=O)C(=O)c1ccccc1-2,–,–,2.32,> 100 µM,22.1,40.3 µM,2000 nM,9.25,2240 nM,6.11 µM,11500,24.9,14.9 µM,28.1 µM,19.2 µM,> 100 µM,2.23 µM,> 100,17.9,35
NS(=O)(=O)c1cc(C(=O)O)c(O)c2ccccc12,–,–,–,> 100 µM,–,> 100 µM,–,> 100,–,> 100 µM,–,> 100,–,> 100 µM,–,> 100 µM,–,> 100,–,> 100
